The subject of test [1] is Aspergillus niger (ATCC 16404). Nature of the test: Comparison of strength between saccharides, preservative efficacy against fungus. The class given is cell-based. How it is done: (§1) The preservative efficacy of various saccharides and a cationic polysaccharide were tested against one bacteria, i.e., Staphylococcus aureus (ATCC 6538), and against one fungus, i.e., Aspergillus niger (ATCC 16404). Acceptance criteria for the bacteria established that the number of viable bacteria, recovered per ml, be reduced by not less than 3.0 logs at 14 days. After the rechallenge at day 14, the concentration of bacteria shall be reduced by at least 3.0 logs at day 28. Acceptance criteria for the fungus established that the number of viable yeasts and molds, recovered per ml, remain at or below the initial concentrations within an experimental error of ±0.5 logs within 14 days. After day 28, the concentration of mold and yeast shall remain at or below the concentrations after rechallenge within experimental error of ±0.5 logs. Results of the saccharide/cationic polysaccharide preservative efficacy test are set forth below in Table 1.

Test [2] has as its system Staphylococcus aureus (ATCC 6538). Nature of the test: Comparison of strength between saccharides, preservative efficacy against bacteria. The class given is cell-based. How it is done:
as §1

Turning to `O=C[C@H](O)[C@@H](O)[C@@H](O)[C@H](O)CO` [Galactose], the “Log Reduction of Aspergillus niger (ATCC 16404) at 28 Days (Fungus)” value (“Log Reduction of Aspergillus niger” below) in test [1] was 1.4 Log. For the same compound, in test [2], the “Log Reduction of Staphylococcus aureus (ATCC 6538) at 28 Days (Bacteria)” value (“Log Reduction of Staphylococcus aureus” below) worked out at 2.2 Log.

As to `CO[C@H]1O[C@H](CO)[C@@H](O)[C@H](O)[C@H]1O` [Methyl-α-D-gluco-pyranose], the “Log Reduction of Aspergillus niger” value in test [1] was determined as 1.6 Log. In test [2], the “Log Reduction of Staphylococcus aureus” value came out at 1.7 Log.

In the case of `O=C(CO)[C@@H](O[C@H]1O[C@H](CO)[C@@H](O)[C@H](O)[C@H]1O)[C@H](O)[C@H](O)CO` [Turanose], the “Log Reduction of Aspergillus niger” value in test [1] is 2.1 Log. Also, in test [2], the “Log Reduction of Staphylococcus aureus” value amounted to 1.4 Log.

On to `CO[C@H]1O[C@H](CO)[C@@H](O)[C@H](O)[C@H]1O` [Methyl-α-D-gluco-pyranoside], for which the “Log Reduction of Aspergillus niger” value in test [1] amounted to 2.9 Log. Moreover, the “Log Reduction of Staphylococcus aureus” value in test [2] is recorded as 1.2 Log.

On to `OC[C@H]1O[C@H](O[C@H]2O[C@H](CO)[C@@H](O)[C@H](O)[C@H]2O)[C@H](O)[C@@H](O)[C@@H]1O` [Trehalose], for which, in test [1], the “Log Reduction of Aspergillus niger” value is on record as 2.0 Log. Also, the “Log Reduction of Staphylococcus aureus” value in test [2] is given as 1.3 Log.

As to `O=C[C@H](O)[C@@H](O)[C@H](O)[C@H](O)CO` [D-Glucose], the “Log Reduction of Aspergillus niger” value in test [1] worked out at 3.7 Log. In addition, the “Log Reduction of Staphylococcus aureus” value in test [2] is on record as 1.9 Log.

With `OC[C@@H](O)[C@@H](O)[C@H](O)[C@H](O)CO` [Mannitol], the “Log Reduction of Aspergillus niger” value in test [1] is listed as 2.4 Log. The “Log Reduction of Staphylococcus aureus” value in test [2] is on record as 2.0 Log.
